Measured values taken from patent publication US9320760B2, “Compositions and methods of use of compounds to increase cancer patient survival time” (BioNumerik Pharmaceuticals, Inc., priority 2008, dated 2016).
“And” between values parts separate entries of the source, which are not always exact repeats. Equal entries are not always repeated.

Molecular target: T1, GST (m1-1 isotype of GST) (Homo sapiens, UniProt P09488)
T1 construct: purchased
T1 sequence (P09488 1-218): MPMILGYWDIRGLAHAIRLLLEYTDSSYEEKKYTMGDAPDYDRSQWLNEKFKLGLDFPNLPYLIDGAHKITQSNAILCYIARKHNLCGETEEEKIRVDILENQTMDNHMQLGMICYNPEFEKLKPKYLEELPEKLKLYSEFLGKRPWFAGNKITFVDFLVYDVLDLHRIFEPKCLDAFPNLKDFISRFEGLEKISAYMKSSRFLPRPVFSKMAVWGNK
Assay: GST assay: conjugation of reduced glutathione to 1-chloro-2,4-dinitrobenzene (CDNB), 340 nm
Assay type: biochemical
Details: for Slope Abs/min: individual assay run, 1 mM GSH, slope 8.9 to 13.1 min, 20° C.; for Slope Mean: mean of three runs (0 mM control 0.0449); for Relative Activity: normalized to reactions with no Tavocept
Protocol: An in vitro assay for GST has been developed and reported. See, Meyer, D. J. and Ketterer, B., Purification of soluble human glutathione S-transferases. Methods Enzymol. 252:53-65 (1995). This assay monitors the conjugation of reduced glutathione to 1-chloro-2,4-dinitrobenzene (CDNB), as illustrated in Reaction Scheme II, below.
Reduced thiol forms a conjugate with CDNB (extinction coefficient=9600 M^−1 cm^−1), which is detected at 340 nm. […] A typical 1 mL assay was set up by mixing 500 μL NaHPO4 buffer (200 mM, pH 6.5), 20 μL GSH (50 mM), 20 μL CDNB (50 mM), and 458 μL sterile water. Reactions were incubated at 20° C. in the cuvette holder of the spectrophotometer for approximately 5 min. prior to initiating the assay with the addition of enzyme (m1-1 isotype of GST; activity >100 U/mg). The enzyme stock purchased from the vendor was diluted 1:100 in 200 mM NaHPO4 buffer (pH 6.5), and 2 μL of the diluted enzyme was added to initiate the reaction. The final amount of enzyme added to the assay was typically 0.002 U. Assays were run at 20° C. in 1 mL quartz cuvettes (Hellma Scientific). Slopes were measured in the linear range of the assay (i.e., typically between 5 to 10 min.). […] Final reaction volumes were fixed at 1 mL by adjusting the amount of water added.
All UV-visible assays were performed using a Varian Cary 100 spectrophotometer equipped with a thermostatic jacketed multi-cell holder. The default parameters of the Cary Win UV Enzyme Kinetics application (version 2.00) were used; with the exceptions of using both the visible and deuterium lamps, and setting the wavelength to 340 nm, the temperature to 20° C., and the maximal duration of the assay at 30 minutes.
Raw data was obtained on a Cary 100 spectrophotometer. […] The first phase was a baseline corresponding to the time prior to addition of enzyme (typically 2-5 min. in duration). Assays in the first phase of the reaction contained only substrate, buffer and (in some assays) Tavocept™. The spectrophotometer was put in pause mode while enzyme (GST) was added and mixed into the assay reactions. No absorbance values were collected during the process of enzyme addition. The region of experimental interest was during the linear phase of the enzyme reaction, which immediately followed the addition of enzyme. The linear phase is of experimental interest because it is when the classical model of Michaelis-Menton kinetics holds true. During this phase the substrate concentration is high (>Km for enzyme) and, therefore, the rate of catalysis is independent of the substrate concentration. It was during this time that reaction rates (i.e., slopes of change in absorbance with time) were measured using the Cary 100 software. The duration of the linear phase was between 5-10 minutes, depending upon the specific reaction conditions. Reactions were considered complete when substrate concentration was no longer saturating and became a rate limiting factor of the assay. When the substrate was limiting, the reaction rate deviated from linearity. This end phase of the reaction was typically observed after 10 to 15 minutes. Absorbance and time values during the end phase of the reaction were not used in slope calculations because the reaction was effectively over at this point as the reaction no longer followed the classical Michaelis-Menton model for enzyme kinetics. Completion of the reaction on the Cary software could be detected visually by overlaying a straight line beginning at the addition of enzyme and extending past the end phase of the assay curve. Upon completion of a set of reactions data was stored as an electronic “batch” file. Sigma Plot was used specifically to show the mean of assays run in triplicate with linear regression lines and error bars illustrating standard deviation. Descriptive statistics (mean and standard deviation) were used to describe and summarize the results of the experiments. The results of these experiments are illustrated in FIG. 16. […]

O=S(=O)([O-])CCSSCCS(=O)(=O)[O-].[Na+].[Na+] [Tavocept™, disodium 2,2′-dithio-bis-ethane sulfonate]
Slope Abs/min (Tavocept 1.1 mM): 0.0437 Abs/min and 0.0407 Abs/min and 0.0427 Abs/min | Slope Mean (Tavocept 1.1 mM): 0.0424 Abs/min | Relative Activity (Tavocept 1.1 mM): 94.4% | Slope Abs/min (Tavocept 3.3 mM): 0.0295 Abs/min and 0.0242 Abs/min and 0.0284 Abs/min | Slope Mean (Tavocept 3.3 mM): 0.0274 Abs/min | Relative Activity (Tavocept 3.3 mM): 61% | Slope Abs/min (Tavocept 10 mM): 0.0155 Abs/min and 0.0158 Abs/min and 0.0139 Abs/min | Slope Mean (Tavocept 10 mM): 0.0151 Abs/min | Relative Activity (Tavocept 10 mM): 33.6% | increase in GST inhibition (Tavocept raised from 1.1 mM to 3.3 mM): ~6 times
